The subject of assay [1] is protein kinases in MDA-MB-231 breast cancer cell lysates. The assay is described as follows: Affinity purification of kinases from MDA-MB-231 cell lysates on inhibitor resins, bound proteins identified by LC-MS/MS. In kind it is binding, Homo sapiens. The following applies: MDA-MB-231 lysate. The method, then:
MDA-MB-231 cells were cultured in RPMI1640 (Invitrogen) supplemented with 10% fetal bovine serum (Invitrogen) and insulin at 0.25 IU/ml. Subconfluent cells were lysed with ice-cold lysis buffer containing 50 mM HEPES-NaOH (pH 7.5), 150 mM NaCl, 0.5% Triton X-100, 1 mM EDTA 1 mM EGTA supplemented with additives (10 μg/ml aprotinin, 10 μg/ml leupeptin, 1 mM PMSF, 10 mM NaF, 50 ng/ml calyculin A, 1% phosphatase inhibitor mixture 3 (Sigma), and 2.5 mM Na3VO4) for 5 min on ice. Cell debris was removed by centrifugation at 16,500 g at 4° C. for 30 min and the supernatant was subsequently filtered through a 0.45 μm PVDF membrane (Millipore). Protein concentrations were measured by the Bradford assay (Bio-Rad).
Kinase inhibitors Purvalanol B (Tocris) and SU6668 (Biochempartner Chemical) were immobilized to EAH-sepharose 4B (GE Healthcare) and VI16832 (Evotec) was coupled to ECH-sepharose 4B (GE Healthcare) beads via a carbodiimide-mediated reaction. Briefly, 1 ml of beads were washed 3 times with 10 ml of 0.5 M NaCl, twice with 10 ml H2O and once with coupling buffer made of 50% dimethylformamide (DMF) and 50% ethanol. The washed and aspirated beads were then mixed with 1 ml of inhibitor solution (Purvalanol B at 10 mM, SU6668 at 10 mM and VI16832 at 3 mM dissolved in coupling buffer), followed by dropwise addition of 150 μl of 1 M N-(3-dimethylaminopropyl)-N-ethylcarbodiimide hydrochloride (EDC) in coupling buffer.
The coupling reaction was carried out in the dark at room temperature overnight on a rotating wheel. To block the remaining reactive groups, the resin was washed twice with 2 ml of coupling buffer followed by addition of 1 ml of DMF/ethanol/ethanolamine at ratio 1:1:1 (pH 8). The reaction was initiated by dropwise addition of 150 μl of 1 M EDC in coupling buffer and the mixture was then incubated again in the dark at room temperature overnight with gentle agitation. Subsequently the resin was washed 3 times with 10 ml of coupling buffer, twice with 10 ml of 0.5 M NaCl and once with 10 ml of 20% ethanol. The resin was stored in 20% ethanol as a suspension at 4° C. in the dark. For CTx-0294885 immobilization, activated CH Sepharose 4B (GE Healthcare) (0.5 g) was swelled with 20 ml of 1 mM HCl and collected by vacuum filtration. The collected resin was washed 4 times with 20 ml of 1 mM HCl, and mixed with 3 ml of CTx-0294885 (9 mM) dissolved in 50% DMF 50% 100 mM sodium bicarbonate (pH 8). The suspension was agitated on a shaker table for 18 h. The mixture was washed with 5 ml of 50% aqueous DMF and the resin was resuspended in IM ethanolamine in 50% aqueous DMF. The mixture was agitated for 1 h before the resin was collected by filtration and washed 5 times with 5 ml of 50% aqueous DMF, 10 times with 10 ml of 0.1 M acetate buffer (pH 4), 10 times with 10 ml of 0.1 M bicarbonate buffer (pH 8), and 10 times of 10 ml 20% ethanol. The resin was resuspended in 10 ml of 20% ethanol and stored at 4° C. An equally suitable alternative protocol for CTx-0294885 immobilization is described in Example 2.
The salt concentration in the protein lysates was adjusted to 1 M NaCl and the kinase inhibitor resins were washed once with 10 ml of H2O and once with 10 ml of washing buffer A (lysis buffer with 1 M NaCl plus 10 mM NaF and 0.1 mM Na3VO4) prior to kinase enrichment. For testing of single kinase inhibitors, 1 ml of inhibitor resin was incubated with 50 mg of protein lysates, and for multi-inhibitor resins, a cocktail comprising 1 ml of each inhibitor resin was used for incubation with 100 mg of protein lysates. After 2 h of incubation at 4° C. in the dark on a rotating wheel, the resins were washed twice with 10 ml of washing buffer A, once with 10 ml of washing buffer B (same as washing buffer A except NaCl concentration is 150 mM instead of 1 M) and once with washing buffer C (50 mM HEPES, 10 mM NaF and 0.1 mM Na3VO4). […]

Assay [2] concerns protein kinases from three different cell lines. The note with it: cited from earlier work.

SMILES strings stand for the structures.

The compound `CNC(=O)c1ccccc1Nc1nc(Nc2ccc(N3CCNCC3)cc2)ncc1Cl` [CTx-0294885, 2-((5-Chloro-2-((4-(piperazin-1-yl)phenyl)amino)pyrimidin-4-yl)amino)-N-methylbenzamide] had a proteins identified in assay [1] (CTx-0294885 coupled to CL sepharose 4B beads, single resin) of 2546. In assay [1] (FIG. 2A), the “kinases of the RGC (receptor guanylate cyclase) family identified” value is reported as “No kinases from the minor RGC (receptor guanylate cyclase) family were identified” and the “major kinase subgroups with representatives identified” value turned out to be 9. The “relative enrichment of kinase families” value in assay [1] (FIG. 2B) is “particularly strong enrichment for kinases of the STE, CMGC and AGC subfamilies”. For the same compound, the “kinases bound that are not bound by the other reagents (P, S, V)” value in assay [1] (comparison with purvalanol B, SU6668 and VI16832 columns) is on record as 77. Also, in assay [1] (gene ontology analysis, FIG. 2C), the “enrichment of non-protein kinases” value is recorded as “enrichment for other purine nucleotide binding proteins”. In addition, the “kinase identifications if phosphosites are included (kinases bound)” value in assay [1] (single resin) was found to be 240. Besides, the “kinases identified among the proteins identified” value in assay [1] (single resin, phosphosites not included) is recorded as 185.
With `NCCOc1ccc(Nc2ncc3ccc(=O)n(C4CC5CCC4C5)c3n2)cc1` (stereo not drawn) [VI16832], in assay [2], the “protein kinases detected in total” value is 170.

The values are drawn from patent US20140323346A1, “BINDING AGENT” (Garvan Institute of Medical Research, priority 2011, published 2014).
